# Activity calls are given as the source filed them. The calls are words filed in the database; no cut-off is given here.
# Key:
# [1] = system: A-375; experiment: Cell cycle arrest in human A375 cells assessed as accumulation at G2/M phase at 3 uM after 24 hrs by propidium iodide staining-based flow cytometry (reference value: 7.91 to 21.07%); assay type: functional
# [2] = system: A-375; experiment: Cell cycle arrest in human A375 cells assessed as accumulation at G1 phase after 24 hrs by propidium iodide staining-based flow cytometry; assay type: functional
# [3] = system: A-375; experiment: Induction of apoptosis in human A375 cells assessed as late apoptotic cells at 1 uM after 24 hrs by Annexin V-FITC/propidium iodide staining based flow cytometry (reference value: 3.80 to 4.61%); assay type: functional
# [4] = system: A-375; experiment: Cell cycle arrest in human A375 cells assessed as accumulation at S phase at 1 uM after 24 hrs by propidium iodide staining-based flow cytometry (reference value: 20.08 to 31.09%); assay type: functional
# [5] = system: A-375; experiment: Induction of apoptosis in human A375 cells assessed as viable cells at 1 uM after 24 hrs by Annexin V-FITC/propidium iodide staining based flow cytometry (reference value: 90.6 to 94.3%); assay type: functional; settings: A-375, 24 h, read-out: Activity
# [6] = system: A-375; experiment: Cell cycle arrest in human A375 cells assessed as accumulation at G1 phase at 3 uM after 12 hrs by propidium iodide staining-based flow cytometry (reference value: 59.02 to 60.22%); assay type: functional
# [7] = system: A-375; experiment: Cell cycle arrest in human A375 cells assessed as accumulation at G1 phase at 3 uM after 36 hrs by propidium iodide staining-based flow cytometry (reference value: 59.02 to 60.22%); assay type: functional
# [8] = system: A-375; experiment: Induction of apoptosis in human A375 cells at 3 uM by Annexin V-FITC/propidium iodide staining based flow cytometry; assay type: functional, cell-based; settings: TDE = time-dependent effect
# [9] = system: A-375; experiment: Induction of apoptosis in human A375 cells assessed as early apoptotic cells at 1 uM after 24 hrs by Annexin V-FITC/propidium iodide staining based flow cytometry (reference value: 1.22 to 1.64%); assay type: functional
# [10] = system: A-375; experiment: Antiproliferative activity against human A375 cells harboring BRAF V600E mutant after 24 hrs by MTT assay; assay type: functional, cell-based; settings: A-375, 24 h
# [11] = system: A-375; experiment: Induction of apoptosis in human A375 cells assessed as viable cells at 3 uM after 36 hrs by Annexin V-FITC/propidium iodide staining based flow cytometry (reference value: 90.6 to 94.3%); assay type: functional; settings: A-375, 36 h, read-out: Activity
# [12] = system: A-375; experiment: Induction of apoptosis in human A375 cells assessed as necrotic cells at 10 uM after 24 hrs by Annexin V-FITC/propidium iodide staining based flow cytometry (reference value: 0.635 to 3.12%); assay type: functional
# [13] = biological target: Serine/threonine-protein kinase B-raf (Mus musculus, UniProt P28028, V600E); experiment: Inhibition of full-length GST-tagged mouse BRAF V600E mutant using recombinant human full length N-terminal His-tagged MEK1 as substrate preincubated for 1 hr followed by substrate addition measured after 25 mins by Nu-page gel-based phosphor screen analysis
# [14] = system: A-375; experiment: Induction of apoptosis in human A375 cells assessed as viable cells at 3 uM after 24 hrs by Annexin V-FITC/propidium iodide staining based flow cytometry (reference value: 90.6 to 94.3%); assay type: functional; settings: A-375, 24 h, read-out: Activity
# [15] = system: A-375; experiment: Induction of apoptosis in human A375 cells assessed as viable cells at 3 uM after 12 hrs by Annexin V-FITC/propidium iodide staining based flow cytometry (reference value: 90.6 to 94.3%); assay type: functional; settings: A-375, 12 h, read-out: Activity
# [16] = system: A-375; experiment: Induction of apoptosis in human A375 cells assessed as necrotic cells at 3 uM after 12 hrs by Annexin V-FITC/propidium iodide staining based flow cytometry (reference value: 0.635 to 3.12%); assay type: functional
# [17] = system: A-375; experiment: Induction of apoptosis in human A375 cells assessed as necrotic cells at 3 uM after 24 hrs by Annexin V-FITC/propidium iodide staining based flow cytometry (reference value: 0.635 to 3.12%); assay type: functional
# [18] = Antiproliferative activity against human WM1361 cells harboring wild-type BRAF after 48 hrs by MTT assay; assay type: functional, cell-based; settings: WM1361, 48 h
# [19] = system: A-375; experiment: Induction of apoptosis in human A375 cells assessed as early apoptotic cells at 3 uM after 36 hrs by Annexin V-FITC/propidium iodide staining based flow cytometry (reference value: 1.22 to 1.64%); assay type: functional
# [20] = system: A-375; experiment: Cell cycle arrest in human A375 cells assessed as accumulation at G1 phase at 1 uM after 24 hrs by propidium iodide staining-based flow cytometry (reference value: 59.02 to 60.22%); assay type: functional
# [21] = system: A-375; experiment: Cell cycle arrest in human A375 cells assessed as accumulation at S phase at 3 uM after 12 hrs by propidium iodide staining-based flow cytometry (reference value: 20.08 to 31.09%); assay type: functional
# [22] = system: A-375; experiment: Induction of apoptosis in human A375 cells assessed as reduction in mitochondrial membrane potential up to 8 uM after 12 hrs using JC-1 staining-based flow cytometry; assay type: functional, cell-based
# [23] = system: A-375; experiment: Induction of apoptosis in human A375 cells assessed as late apoptotic cells at 3 uM after 24 hrs by Annexin V-FITC/propidium iodide staining based flow cytometry (reference value: 3.80 to 4.61%); assay type: functional
# [24] = system: A-375; experiment: Cell cycle arrest in human A375 cells assessed as accumulation at S phase at 3 uM after 24 hrs by propidium iodide staining-based flow cytometry (reference value: 20.08 to 31.09%); assay type: functional
# [25] = system: A-375; experiment: Induction of apoptosis in human A375 cells assessed as viable cells at 10 uM after 24 hrs by Annexin V-FITC/propidium iodide staining based flow cytometry (reference value: 90.6 to 94.3%); assay type: functional; settings: A-375, 24 h, read-out: Activity
# [26] = system: A-375; experiment: Cell cycle arrest in human A375 cells assessed as accumulation at G2/M phase at 3 uM after 36 hrs by propidium iodide staining-based flow cytometry (reference value: 7.91 to 21.07%); assay type: functional
# [27] = system: A-375; experiment: Induction of apoptosis in human A375 cells assessed as necrotic cells at 1 uM after 24 hrs by Annexin V-FITC/propidium iodide staining based flow cytometry (reference value: 0.635 to 3.12%); assay type: functional
# [28] = system: A-375; experiment: Induction of apoptosis in human A375 cells assessed as late apoptotic cells at 3 uM after 12 hrs by Annexin V-FITC/propidium iodide staining based flow cytometry (reference value: 3.80 to 4.61%); assay type: functional
# [29] = system: A-375; experiment: Cell cycle arrest in human A375 cells assessed as accumulation at S phase at 3 uM after 36 hrs by propidium iodide staining-based flow cytometry (reference value: 20.08 to 31.09%); assay type: functional
# [30] = system: A-375; experiment: Cell cycle arrest in human A375 cells assessed as accumulation at G1 phase at 10 uM after 24 hrs by propidium iodide staining-based flow cytometry (reference value: 59.02 to 60.22%); assay type: functional
# [31] = system: A-375; experiment: Cell cycle arrest in human A375 cells assessed as accumulation at G1 phase at 3 uM by propidium iodide staining-based flow cytometry; assay type: functional; settings: TDE = time-dependent effect
# [32] = system: A-375; experiment: Cell cycle arrest in human A375 cells assessed as accumulation at G1 phase at 3 uM after 24 hrs by propidium iodide staining-based flow cytometry (reference value: 59.02 to 60.22%); assay type: functional
# [33] = system: HT-29; experiment: Antiproliferative activity against human HT-29 cells harboring BRAF V600E mutant after 24 hrs by MTT assay; assay type: functional, cell-based; settings: HT-29, 24 h
# Chain of Serine/threonine-protein kinase B-raf (P28028 whole entry, looked up, stated change not applied): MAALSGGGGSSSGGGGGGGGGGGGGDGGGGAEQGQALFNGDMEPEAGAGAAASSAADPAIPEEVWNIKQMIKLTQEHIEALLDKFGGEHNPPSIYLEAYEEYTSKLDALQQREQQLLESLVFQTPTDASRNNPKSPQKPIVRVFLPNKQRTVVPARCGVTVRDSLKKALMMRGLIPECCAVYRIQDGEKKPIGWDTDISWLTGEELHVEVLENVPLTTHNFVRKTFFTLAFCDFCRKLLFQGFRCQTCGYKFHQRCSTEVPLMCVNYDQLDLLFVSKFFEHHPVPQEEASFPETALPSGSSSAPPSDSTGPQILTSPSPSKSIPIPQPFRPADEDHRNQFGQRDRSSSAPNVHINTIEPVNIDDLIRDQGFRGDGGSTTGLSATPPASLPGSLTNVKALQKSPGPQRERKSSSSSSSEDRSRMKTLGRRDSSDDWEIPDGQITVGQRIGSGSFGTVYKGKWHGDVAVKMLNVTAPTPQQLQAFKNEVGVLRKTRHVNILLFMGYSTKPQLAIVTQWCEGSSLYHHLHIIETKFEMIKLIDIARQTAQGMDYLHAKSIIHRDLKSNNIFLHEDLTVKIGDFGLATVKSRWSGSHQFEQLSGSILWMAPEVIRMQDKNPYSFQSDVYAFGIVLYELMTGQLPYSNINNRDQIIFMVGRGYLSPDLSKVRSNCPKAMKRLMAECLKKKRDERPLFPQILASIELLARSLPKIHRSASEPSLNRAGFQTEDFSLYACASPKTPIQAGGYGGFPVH
structure (smiles),measurement,setting,value
COc1ccc(-n2cc(NC(=O)Cn3ccc(-c4cccc(Cl)c4)n3)cn2)cc1,Activity,[1],9.69 - 9.82%
same,Activity,[2],Dose-dependent effect
same,Activity,[3],14.1%
same,Activity,[4],29.07%
same,viability at 1 µM,[5],79.5%
same,Activity,[6],51.08%
same,Activity,[7],35.56%
same,Activity,[8],Tde
same,Activity,[9],1.92%
same,IC50,[10],960 nM
same,viability at 3 µM,[11],32.8%
same,Activity,[12],7.54%
same,IC50,[13],100 nM
same,viability at 3 µM,[14],64.7 to 72.9%
same,viability at 3 µM,[15],65.3%
same,Activity,[16],9.77%
same,Activity,[17],2.89 - 4.99%
same,IC50,[18],10200 nM
same,Activity,[19],1.95%
same,Activity,[20],50.93%
same,Activity,[21],35.98%
same,Activity,[22],Active
same,Activity,[23],19.1 - 29.2%
same,Activity,[24],43.96 - 45.74%
same,viability at 10 µM,[25],53.2%
same,Activity,[26],10.06%
same,Activity,[27],4.51%
same,Activity,[28],19.7%
same,Activity,[29],52.38%
same,Activity,[30],39.32%
same,Activity,[31],Tde
same,Activity,[32],40.19 - 43.48%
same,IC50,[33],2170 nM
